Measured values reported in PubChem BioAssay AID1996.
Values after ≈ are worked out from the molar mass of the structure shown.

Details: buffer; pH 7.4; 200.0 µM

First: COCCNc1nc(-c2ccccc2)nc2ccccc12.Cl
Second: Cn1c(/C=C/c2ccccc2)nc2ccccc2c1=O
The solubility kinetic of the first is higher: greater than 0.0474 mg/mL for the first, 0.0023 mg/mL (≈ 8.77 µM) for the second.

`C[C@H](NC(=O)Nc1cccc(Br)c1)C(=O)O` and `CCC(C)[C@H](NC(=O)Nc1ccc(S(N)(=O)=O)cc1)C(=O)OC` (stereo partly specified) cannot be ordered by solubility kinetic: greater than 0.0431 mg/mL for the first, greater than 0.0515 mg/mL for the second.

First: CCCC(C)NC(=O)CSc1nnc2ccccn12 (stereo unspecified)
Second: CC(C)(C)Nc1c(-c2cccs2)nc2ccccn12
The solubility kinetic of the first is higher: greater than 0.0418 mg/mL for the first, 0.0334 mg/mL (≈ 123 µM) for the second.

Compared with `Cc1csc2c(NC3CCN(Cc4ccccc4)CC3)ncnc12`, `c1nc(Nc2ccc(N3CCOCC3)cc2)c2ccsc2n1` is higher in solubility kinetic: 0.0415 mg/mL (≈ 123 µM) for the first, greater than 0.0469 mg/mL for the second.

Compared with `COc1ccc(CNC(=S)NCc2ccc(F)cc2)cc1`, `O=C(COC(=O)c1ccc2c(c1)OCCO2)NCCc1ccc(F)cc1` is 1.8-fold lower in solubility kinetic: 0.0095 mg/mL (≈ 31.2 µM) for the first, 0.0053 mg/mL (≈ 14.7 µM) for the second.

First: C=CCNc1nc(N)c([N+](=O)[O-])c(NC2CCCCC2)n1
Second: C=CCC1(CC=C)CCCN1Cc1nc(COc2ccccc2)no1
The solubility kinetic of the first is 12-fold lower: 0.0007 mg/mL (≈ 2.39 µM) for the first, 0.0083 mg/mL (≈ 24.5 µM) for the second.

First: O=C(NC1C2CC3CC(C2)CC1C3)c1ccc(Br)o1 (stereo unspecified)
Second: CCOc1ccc(NC(=S)NC23CC4CC(CC(C4)C2)C3)cc1
The solubility kinetic of the first is higher: 0.0278 mg/mL (≈ 85.7 µM) for the first, less than 0.0004 mg/mL for the second.

Going from `CC1CCCCC1NC(=O)CN1C(=O)COc2ccccc21` (stereo unspecified) to `O=C(CN1C(=O)COc2ccc(Cl)cc21)Nc1nccs1`, the solubility kinetic falls from 0.0082 mg/mL (≈ 27.1 µM) to 0.0014 mg/mL (≈ 4.32 µM) (5.9-fold).

Going from `Cc1ccccc1N1CCN(Cc2ccc([N+](=O)[O-])o2)CC1` to `Cc1cccc(N2CCN(CC(=O)NCc3ccc(Cl)cc3)CC2)c1C`, the solubility kinetic falls from 0.0343 mg/mL (≈ 114 µM) to 0.0016 mg/mL (≈ 4.3 µM) (21-fold).

`O=C(O)C1C2CCC(C2)C1C(=O)NCCc1ccc(F)cc1` (stereo unspecified) and `CC1=NCCN1CCNC(=O)Nc1ccc(F)cc1` cannot be ordered by solubility kinetic: greater than 0.0458 mg/mL for the first, greater than 0.0396 mg/mL for the second.

`CC(C)NC(=NCc1ccc(Cl)cc1Cl)Nc1ccccc1` and `CN(C(=O)Nc1ccccc1)C1CCCc2ccccc21` (stereo unspecified) cannot be ordered by solubility kinetic: greater than 0.0504 mg/mL for the first, greater than 0.0421 mg/mL for the second.

Going from `COCc1nc2oc3ccc(C)cc3c(=O)c2cc1C(=O)OC` to `COc1ccccc1C(=O)Nc1onc(C)c1C#N`, the solubility kinetic rises from 0.0039 mg/mL (≈ 12.4 µM) to greater than 0.0386 mg/mL.

Going from `N#Cc1cncc(C#Cc2ccccc2)c1` to `CN(C)c1nc(-c2cccnc2)nc(-c2ccccc2)c1C#N`, the solubility kinetic falls from 0.0056 mg/mL (≈ 27.4 µM) to 0.0006 mg/mL (≈ 1.99 µM) (9.3-fold).

First: CCCCOc1ccc(C(=O)NCCc2cccs2)cc1
Second: CCOc1ccccc1CNC(=O)CNC(=O)c1cccs1
The solubility kinetic of the first is lower: 0.0013 mg/mL (≈ 4.28 µM) for the first, greater than 0.0478 mg/mL for the second.

Compared with `CC(=O)Nc1ccc(NC(=O)c2ccc(Cl)nc2)cc1`, `CCC(=O)Nc1ccc(N/C(N)=N/c2nc(C)cc(C)n2)cc1` is lower in solubility kinetic: greater than 0.0435 mg/mL for the first, 0.0361 mg/mL (≈ 116 µM) for the second.

Compared with `CCOC(=O)c1cc(-c2cccc([N+](=O)[O-])c2)on1`, `CCOc1ccccc1Nc1ccc(C(=O)O)cc1[N+](=O)[O-]` is 19-fold higher in solubility kinetic: 0.0021 mg/mL (≈ 8.01 µM) for the first, 0.0408 mg/mL (≈ 135 µM) for the second.

`CC(=O)N1CCN(CC(C)(C)NS(=O)(=O)c2ccccc2)CC1` and `O=C(Cc1ccccc1[N+](=O)[O-])Nc1ccccc1C(=O)N1CCOCC1` cannot be ordered by solubility kinetic: greater than 0.0509 mg/mL for the first, greater than 0.0554 mg/mL for the second.

Compared with `O=C(Cc1ccc(Br)cc1)OCC(=O)N1CCOCC1`, `CC1(C)CC(=O)C=C(NCc2ccc(C(=O)O)cc2)C1` is lower in solubility kinetic: greater than 0.0513 mg/mL for the first, 0.0376 mg/mL (≈ 138 µM) for the second.

Compared with `CN(Cc1c(F)cccc1Cl)C(=O)c1cc2ccccc2o1`, `CN(Cc1cccc([N+](=O)[O-])c1)Cc1cccc2ccccc12` is lower in solubility kinetic: 0.0123 mg/mL (≈ 38.7 µM) for the first, less than 0.0003 mg/mL for the second.

Compared with `Cc1c(NC(=O)COC(=O)c2cccn2C)c(=O)n(-c2ccccc2)n1C`, `CC(NC(=O)C(C)N1C(=O)c2cccc([N+](=O)[O-])c2C1=O)c1ccccc1` (stereo unspecified) is lower in solubility kinetic: greater than 0.0553 mg/mL for the first, 0.0283 mg/mL (≈ 77 µM) for the second.

Compared with `Cl.NCC1CC2c3ccccc3C1c1ccccc12` (stereo unspecified), `CC(Cc1cccs1)NCc1ccccc1` (stereo unspecified) is lower in solubility kinetic: greater than 0.0408 mg/mL for the first, 0.0223 mg/mL (≈ 96.4 µM) for the second.

Compared with `COc1ccc(C(=O)CN2C(=O)c3ccccc3C2=O)c(OC)c1`, `COc1ccc(S(=O)(=O)N(C)CC(=O)NCc2ccccn2)cc1` is 29-fold higher in solubility kinetic: 0.0013 mg/mL (≈ 4 µM) for the first, 0.0376 mg/mL (≈ 108 µM) for the second.

First: CC(=O)c1cccc(NC(=S)Nc2cccc3ccccc23)c1
Second: O=C(NCc1ccc2c(c1)OCO2)Nc1ccc2ccccc2c1
The solubility kinetic of the first is 8.2-fold higher: 0.0106 mg/mL (≈ 33.1 µM) for the first, 0.0013 mg/mL (≈ 4.06 µM) for the second.

`COC(=O)C(NC(=O)C(C)NC(=O)OCc1ccccc1)C(C)C` (stereo unspecified) and `COCCOC(=O)C1=C(C)NC2(O)c3ccccc3C(=O)C12O` (stereo unspecified) cannot be ordered by solubility kinetic: greater than 0.0505 mg/mL for the first, greater than 0.0479 mg/mL for the second.

First: CC1CCCC(C)N1S(=O)(=O)c1ccc(Cl)cc1 (stereo unspecified)
Second: CC(OCC(O)CN1CCCCC1CCO)c1ccc(Cl)cc1 (stereo unspecified)
The solubility kinetic of the first is 16-fold lower: 0.0027 mg/mL (≈ 9.38 µM) for the first, 0.0422 mg/mL (≈ 123 µM) for the second.

Going from `CC(NC(=O)c1ccc(Br)s1)c1ccncc1` (stereo unspecified) to `NC(=O)c1ccc(NC(=O)CCC(=O)c2cccs2)cc1`, the solubility kinetic falls from greater than 0.0467 mg/mL to 0.0446 mg/mL (≈ 148 µM).

`Cc1cc(C)cc(N(C(C)C(=O)N2CCCC2)S(C)(=O)=O)c1` (stereo unspecified) and `COc1ccc(/C=C/C(=O)N2CCCC2)cc1OC` cannot be ordered by solubility kinetic: greater than 0.0487 mg/mL for the first, greater than 0.0392 mg/mL for the second.

First: Cc1cccc2[nH]c3c(N4CC=C(c5ccc(F)cc5)CC4)ncnc3c12
Second: Fc1ccc(Nc2ccnc(C(F)(F)F)c2)cc1
The solubility kinetic of the first is 26-fold lower: 0.001 mg/mL (≈ 2.79 µM) for the first, 0.0257 mg/mL (≈ 100 µM) for the second.

Compared with `Cc1cccc(N(C)S(=O)(=O)c2csc(C(N)=O)c2)c1`, `Cc1ccc(CS(=O)(=O)CCC(=O)NCCc2ccccc2)cc1` is lower in solubility kinetic: greater than 0.0466 mg/mL for the first, 0.0052 mg/mL (≈ 15.1 µM) for the second.

First: C=CCn1c(SCc2ccc(C(=O)O)cc2)nc2sc(C)c(C)c2c1=O
Second: Cc1cc(C)c(NC(=O)CSCc2c(C)noc2C)c(C)c1
The solubility kinetic of the first is higher: greater than 0.058 mg/mL for the first, 0.0281 mg/mL (≈ 88.2 µM) for the second.

With `Cc1ccc(Nc2nc(-c3ccccc3)cs2)nc1` the solubility kinetic was less than 0.0002 mg/mL.
